Data reported in US20050032124A1, “Identification of genotype-selective agents for treating Huntington's disease” (priority 2003, published 2005).

Assays:
[1] = system: PC12 cells expressing Htt-Q103; assay: PC12 Htt-Q103 toxicity assay, Alamar Blue viability; type: cell-based, rat; parameters: rescue of Htt-Q103 toxicity: dose or concentration left out as unconfirmed
Description: In the first cell system, Applicants developed, in collaboration with Dr. Erik Schweitzer (UCLA), a high-throughput screen (HTS) for compounds that rescue polyQ-induced apoptosis in immortalized rat neuronal cells (Suhr S T, et al., Proc Natl Acad Sci U S A 1998, 95: 7999-8004). PC12 rat pheochromocytoma cells were transfected with exon-1 of the human huntingtin gene containing either 25 or 103 N-terminal polyQ repeats. For enhanced stability the repeat portion consists of alternating CAG/CAA repeats (FIG. 11A). In addition, the expression construct incorporates enhanced green fluorescent protein (EGFP) as a reporter that enables tracking of the fusion proteins by direct immunofluorescence microscopy or biochemical (immunoprecipitation or Western blotting) detection with anti-EGFP antibodies (Schweitzer E S, et al., submitted). Finally, expression is regulated using the Bombyx mori ecdysone receptor and ecdysone analog, tebufenozide (Suhr S T, et al., Proc Natl Acad Sci U S A 1998, 95: 7999-8004). […]
The high-throughput screen developed by Applicants using the PC12 cell system uses the fluorescent viability dye Alamar Blue™ (FIG. 11B). […] The Z-factor is a commonly used quantitative index for maximal signal separation and minimal variability. […]

[2] = system: topoisomerase I (TOPI); assay: Western blot for TOPI expression; type: cell-based, human; conditions: BJ primary cells
Description: (A-C) Western blot of lysates from BJ, BJ-TERT, BJ-TERT/LT/ST, BJ-TERT/LT/ST/RAS^V12, BJ-TERT/LT/RAS^V12 and BJ-TERT/LT/RAS^V12/ST cells with an antibody directed against topoisomerase II (A) or TOPI (B, C). In panel (C), cells were transfected with an siRNA directed against TOPI, lamic A/C or with a control double strand DNA duplex of the same length (TOPI dsDNA). In each case, the blot was probed with an antibody against eIF-4E to identify differences in the amount of protein loaded. The relative amount is quantitated below each band. […] Cell number was determined after transfection with an siRNA directed against TOPI and treatment with the indicated concentrations of camptothecin. (E) Okadaic acid, an inhibitor of PP2A and other cellular phosphatases, sensitizes primary human cells to camptothecin. BJ primary cells were treated simultaneously with the indicated concentrations of both camptothecin and okadaic acid and the effect on calcein AM viability staining was determined. […] BJ primary cells were treated with the indicated concentrations of okadaic acid and the expression level of TOPI was determined by western blot. The relative amount is quantitated below each band. […]

[3] = system: BJ primary cells; assay: Sensitization of primary cells by co-treatment, calcein AM viability staining; type: cell-based, human; conditions: for effect on calcein AM viability staining, alone: BJ primary cells
Description: (A-C) Western blot of lysates from BJ, BJ-TERT, BJ-TERT/LT/ST, BJ-TERT/LT/ST/RAS^V12, BJ-TERT/LT/RAS^V12 and BJ-TERT/LT/RAS^V12/ST cells with an antibody directed against topoisomerase II (A) or TOPI (B, C). In panel (C), cells were transfected with an siRNA directed against TOPI, lamic A/C or with a control double strand DNA duplex of the same length (TOPI dsDNA). In each case, the blot was probed with an antibody against eIF-4E to identify differences in the amount of protein loaded. The relative amount is quantitated below each band. […] Cell number was determined after transfection with an siRNA directed against TOPI and treatment with the indicated concentrations of camptothecin. (E) Okadaic acid, an inhibitor of PP2A and other cellular phosphatases, sensitizes primary human cells to camptothecin. BJ primary cells were treated simultaneously with the indicated concentrations of both camptothecin and okadaic acid and the effect on calcein AM viability staining was determined. […] BJ primary cells were treated with the indicated concentrations of okadaic acid and the expression level of TOPI was determined by western blot. The relative amount is quantitated below each band.
The compounds in group (iii) are camptothecin (CPT) and a novel compound from a combinatorial library, which Applicants have named erastin, for eradicator of RAS and ST-expressing cells (FIG. 2). Efficient CPT-induced and erastin-induced cell death requires the presence of both ST and RAS^V12 (FIGS. 3 and 4 and Table 1). Although CPT and erastin have a similar genetic basis of selectivity, they have distinct mechanisms of action. […] The phosphatase inhibitor okadaic acid was capable of sensitizing otherwise resistant BJ primary cells to CPT (FIG. 5E), possibly because okadaic acid upregulates TOPI (FIG. 5F).

[4] = system: BJELR cells (BJ-TERT/LT/ST/RAS^V12); assay: Screen of ACL library for suppressors of erastin activity (calcein AM); type: cell-based, human; conditions: 4 μg/ml compound, 5 μg/ml erastin
Procedure: ACL library comprises 1,540 compounds and all compounds were prepared in DMSO at […] in 384-well polypropylene plates and stored at −20° C. Replica daughter plates for each library plate were prepared using Zymark Scilone ALH. The daughter plates were diluted 50 fold in DMEM and compound concentration in the daughter plate is 80 μg/ml with 2% DMSO. In assay plate compound from the daughter plate is diluted 20 fold with cell suspension, thus final concentration of each compound is 4 μg/ml.
BJELR cells were seeded at 6000 cells/well (57μl) (for co-treatment screen) and 5000 cells/well (57 μl) (for pretreatment screen) in 384-well black, clear bottom plates using syringe bulk dispenser. For co-treatment suppressor screen, cells were treated with 3 μl of compound from the daughter plates of ACL library (final concentration in assay plate at 4 μg/ml) and at the same time treated with 5 μg/ml of erastin. Compound transfer was done using 384 fixed cannula head. Plates were incubated for 48 hours at 37° C. in incubator with 5% CO2. For the pretreatment screens, cells were pre-incubated with the compound from ACL daughter library plate for overnight and then treated with 5 μg/ml of erastin for further 48 hours. […] Fluorescence intensity was determined using Fusion platereader with filters centered in an excitation of 485 nm and emission of 535 nm. […]

[5] = system: BJELR cells (BJ-TERT/LT/ST/RAS^V12) versus BJEH cells (BJ-TERT); assay: Erastin analogs: activity and selectivity in tumor cells versus normal cells; type: cell-based, human
Description: Applicants additionally tested 135 analogs of erastin for activity and selectivity in tumor cells versus normal cells. […] This compound was named erastin B (see FIG. 8). […] BJELR cells are BJ-TERT/LT/ST/RAS^V12 cells, and BJEH are BJ-TERT cells.

## COC(=O)CC(NC(=O)OC(C)(C)C)C(=O)CF [BOC-D-FMK, Boc-Asp(Ome)-fluoromethyl ketone]
[1]; 50 μM, added at the time of tebufenozide induction
  rescue of the Htt-Q103-induced cytotoxicity: ≥ 100%
[1]; 72 hour induction with tebufenozide
  rescue of Htt-Q103 toxicity: rescues Htt-Q103 toxicity

## C=C1[C@@H](O)[C@@H]2O[C@]3(CC[C@H](/C=C/[C@@H](C)[C@@H]4CC(C)=C[C@@]5(O[C@H](C[C@@](C)(O)C(=O)O)CC[C@H]5O)O4)O3)CC[C@H]2O[C@@H]1[C@@H](O)C[C@H](C)[C@H]1O[C@@]2(CCCCO2)CC[C@H]1C [okadaic acid]
[2]
  expression of TOPI (western blot): stimulates expression of TOPI
[3]; BJ (or BJ-TERT) cells, simultaneous treatment
  sensitization of cells to camptothecin: renders BJ cells sensitive to camptothecin
[3]; BJ or BJ-TERT cells
  sensitization of cells to erastin: does not render BJ or BJ-TERT cells sensitive to erastin
[3]; 3.4 nM
  effect on calcein AM viability staining, alone: no effect on its own
[3]; highest concentrations tested
  effect on calcein AM viability staining, alone: kills BJ cells

## Cc1c(C)c2c(c(C)c1O)CC[C@@](C)(CCC[C@H](C)CCC[C@H](C)CCCC(C)C)O2 [α-tocopherol]
[4]
  suppression of erastin activity: suppress erastin activity

## erastin B
[5]
  activity and selectivity in tumor cells versus normal cells: active and selective, but less potent than erastin
